Results from US10221173B2, “Chemical compounds” (AstraZeneca AB, priority 2017, dated 2019).
Values after ≈ are worked out from the molar mass of the structure shown.

Columns and labels:
[1] = target: recombinant human Estrogen Receptor alpha ligand binding domain (ER alpha-LBD (GST)) (Homo sapiens (Human), UniProt P03372); assay: ERα binding assay (LanthaScreen TR-FRET competition)
[2] = target: Estrogen Receptor (ERα) in MCF-7 cells (Homo sapiens (Human), UniProt P03372); assay: MCF-7 ER down-regulation assay (immuno-fluorescence); type: cell-based
[3] = Thermodynamic solubility (shake-flask); type: physicochemical; details: aqueous phosphate buffer, 25 °C, pH 7.4, aqueous buffer, thermodynamic from solid, phosphate buffer pH 7.4, 24 hours
Experimental: The thermodynamic solubility of a research compound is measured under standard conditions. It is a shake-flask approach that uses 10 mM DMSO solutions which are supplied from the Compound Managements liquid store and is a high throughput method. The dried compounds are equilibrated in an aqueous phosphate buffer (pH 7.4) for 24 hours at 25° C., the portion with the dissolved compound is then separated from the remains. The solutions are analyzed and quantified using UPLC/MS/MS, QC-samples are incorporated in each assay-run to ensure the quality of the assay.

Chain of Estrogen Receptor (ERα) in MCF-7 cells (P03372 whole entry): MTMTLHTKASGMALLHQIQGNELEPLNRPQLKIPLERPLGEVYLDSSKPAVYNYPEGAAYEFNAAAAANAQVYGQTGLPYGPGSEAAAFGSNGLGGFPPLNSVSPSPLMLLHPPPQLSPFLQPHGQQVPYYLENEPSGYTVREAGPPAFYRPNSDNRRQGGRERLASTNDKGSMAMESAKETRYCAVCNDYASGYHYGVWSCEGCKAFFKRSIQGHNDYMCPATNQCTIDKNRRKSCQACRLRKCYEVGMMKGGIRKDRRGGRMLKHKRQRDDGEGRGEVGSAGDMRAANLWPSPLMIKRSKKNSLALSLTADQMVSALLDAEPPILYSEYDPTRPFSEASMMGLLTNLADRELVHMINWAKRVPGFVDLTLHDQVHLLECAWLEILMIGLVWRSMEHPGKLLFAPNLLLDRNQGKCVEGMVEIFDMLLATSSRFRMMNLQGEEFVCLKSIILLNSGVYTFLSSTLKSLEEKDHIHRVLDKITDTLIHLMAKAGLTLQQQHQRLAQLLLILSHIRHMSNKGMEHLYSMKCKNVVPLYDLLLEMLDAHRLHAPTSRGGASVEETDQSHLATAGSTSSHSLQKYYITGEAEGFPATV
Chain of recombinant human Estrogen Receptor alpha ligand binding domain (ER alpha-LBD (GST)) (P03372 307-554): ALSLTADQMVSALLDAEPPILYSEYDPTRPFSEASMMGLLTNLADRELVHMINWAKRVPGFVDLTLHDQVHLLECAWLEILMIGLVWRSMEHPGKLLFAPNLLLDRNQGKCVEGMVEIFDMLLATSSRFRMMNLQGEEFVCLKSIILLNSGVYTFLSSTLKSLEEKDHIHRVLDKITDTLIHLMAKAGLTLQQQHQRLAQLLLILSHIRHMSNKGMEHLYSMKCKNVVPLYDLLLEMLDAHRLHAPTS

Compound	IC50 [1]	IC50 [2]	solubility at 24 h [3]	% downregulation (in brackets) ([2]; maximum downregulation)
Cc1c(OCCN(C)CCCF)ncc(F)c1[C@@H]1c2[nH]c3ccc(F)cc3c2C[C@@H](C)N1C[C@@H](C)C(=O)O [Example 155, (2R)-3-[(1R,3R)-6-fluoro-1-[5-fluoro-2-[2-[3-fluoropropyl(methyl)amino]ethoxy]-3-methyl-4-pyridyl]-3-methyl-1,3,4,9-tetrahydropyrido[3,4-b]indol-2-yl]-2-methyl-propanoic acid]	1 nM	0.21 nM	–	–
C[C@@H]1Cc2c([nH]c3ccccc23)[C@@H](c2c(F)ccc(OCCNCCCF)c2C(F)F)N1C[C@H](C)C(=O)O [Example 125, (S)-3-((1R,3R)-1-(2-(difluoromethyl)-6-fluoro-3-(2-((3-fluoropropyl)amino)ethoxy)phenyl)-3-methyl-1,3,4,9-tetrahydro-2H-pyrido[3,4-b]indol-2-yl)-2-methylpropanoic acid]	1.3 nM	0.62 nM	–	–
C[C@@H]1Cc2c([nH]c3ccccc23)[C@@H](c2cccc(OCCNCCCF)c2F)N1CC(F)(F)F [Example 24, 3-fluoro-N-(2-(2-fluoro-3-((1R,3R)-3-methyl-2-(2,2,2-trifluoroethyl)-2,3,4,9-tetrahydro-1H-pyrido[3,4-b]indol-1-yl)phenoxy)ethyl)propan-1-amine]	–	–	88 µM (≈ 42.4 µg/mL)	–
Cc1ccc([C@@H]2c3[nH]c4ccccc4c3C[C@@H](C)N2CC(F)(F)F)cc1OCCNCCCF [Example 19, 3-fluoro-N-(2-(2-methyl-5-((1R,3R)-3-methyl-2-(2,2,2-trifluoroethyl)-2,3,4,9-tetrahydro-1H-pyrido[3,4-b]indol-1-yl)phenoxy)ethyl)propan-1-amine]	–	–	5 µM (≈ 2.39 µg/mL)	–
C[C@@H]1Cc2c([nH]c3ccccc23)[C@@H](c2c(F)ccc(OCCN(C)CCCF)c2F)N1C[C@H](C)C(=O)O [Example 144, (S)-3-((1R,3R)-1-(2,6-difluoro-3-(2-((3-fluoropropyl)(methyl)amino)ethoxy)phenyl)-3-methyl-1,3,4,9-tetrahydro-2H-pyrido[3,4-b]indol-2-yl)-2-methylpropanoic acid]	5.6 nM	7.9 nM	–	88%
C[C@@H](CN1[C@H](c2c(F)ccc(OCCNCCCF)c2Cl)c2[nH]c3ccccc3c2C[C@H]1C(F)F)C(=O)O [Example 138, (S)-3-((1R,3S)-1-(2-chloro-6-fluoro-3-(2-((3-fluoropropyl)amino)ethoxy)phenyl)-3-(difluoromethyl)-1,3,4,9-tetrahydro-2H-pyrido[3,4-b]indol-2-yl)-2-methylpropanoic acid]	1.6 nM	1.6 nM	–	–
Cc1c(OCCNCCCF)ccc(F)c1[C@@H]1c2[nH]c3ccccc3c2C[C@@H](C)N1CC(F)(F)CO [Example 45, 2,2-difluoro-3-((1R,3R)-1-(6-fluoro-3-(2-((3-fluoropropyl)amino)ethoxy)-2-methylphenyl)-3-methyl-1,3,4,9-tetrahydro-2H-pyrido[3,4-b]indol-2-yl)propan-1-ol]	–	–	227 µM (≈ 115 µg/mL)	–
Cc1c(OCCNCCCF)ccc(F)c1[C@@H]1c2[nH]c3ccccc3c2C[C@@H](C)N1CC(C)(C)C(=O)O [Example 119, 3-((1R,3R)-1-(6-fluoro-3-(2-((3-fluoropropyl)amino)ethoxy)-2-methylphenyl)-3-methyl-1,3,4,9-tetrahydro-2H-pyrido[3,4-b]indol-2-yl)-2,2-dimethyl-propanoic acid]	6.9 nM	1 nM	–	–
C[C@@H]1Cc2c([nH]c3ccccc23)[C@@H](c2cccc(N(C)CCNCCCF)c2)N1CC1(F)COC1 [Example 3, N-1-(3-((1R,3R)-2-((3-fluorooxetan-3-yl)methyl)-3-methyl-2,3,4,9-tetrahydro-1H-pyrido[3,4-b]indol-1-yl)phenyl)-N-2-(3-fluoropropyl)-N-1-methylethane-1,2-diamine]	–	–	712 µM (≈ 344 µg/mL)	–
Cc1c(OCCN(C)CCCF)ccc(F)c1[C@@H]1c2[nH]c3ccc(F)cc3c2C[C@@H](C)N1C[C@@H](C)C(=O)O [Example 160, (R)-3-((1R,3R)-6-fluoro-1-(6-fluoro-3-(2-((3-fluoropropyl)(methyl)amino)ethoxy)-2-methylphenyl)-3-methyl-1,3,4,9-tetrahydro-2H-pyrido[3,4-b]indol-2-yl)-2-methylpropanoic acid]	1.9 nM	0.36 nM	–	–
Cc1c(OCCN(C)CCCF)ncc(F)c1[C@@H]1c2[nH]c3ccccc3c2C[C@@H](C)N1CCC(=O)O [Example 157, 3-((1R,3R)-1-(5-fluoro-2-(2-((3-fluoropropyl)(methyl)amino)ethoxy)-3-methylpyridin-4-yl)-3-methyl-1,3,4,9-tetrahydro-2H-pyrido[3,4-b]indol-2-yl)propanoic acid]	1.8 nM	1 nM	–	–
Cc1c(OCCN(C)CCCF)ccc(F)c1[C@@H]1c2[nH]c3ccc(F)cc3c2C[C@@H](C)N1C[C@H](C)C(=O)O [Example 146, (S)-3-((1R,3R)-6-fluoro-1-(6-fluoro-3-(2-((3-fluoropropyl)(methyl)amino)ethoxy)-2-methylphenyl)-3-methyl-1,3,4,9-tetrahydro-2H-pyrido[3,4-b]indol-2-yl)-2-methylpropanoic acid]	1.1 nM	0.4 nM	–	–
C[C@@H]1Cc2c([nH]c3ccccc23)[C@@H](c2cccc(NCCNCCCF)c2)N1CC1(F)COC1 [Example 2, N-1-(3-((1R,3R)-2-((3-fluorooxetan-3-yl)methyl)-3-methyl-2,3,4,9-tetrahydro-1H-pyrido[3,4-b]indol-1-yl)phenyl)-N-2-(3-fluoropropyl)ethane-1,2-diamine]	–	–	895 µM (≈ 419 µg/mL)	–
C[C@@H]1Cc2c([nH]c3ccccc23)[C@@H](c2cc(F)cc(OCCNCCCF)c2)N1CC(F)(F)F [Example 73, 3-fluoro-N-(2-(3-fluoro-5-((1R,3R)-3-methyl-2-(2,2,2-trifluoroethyl)-2,3,4,9-tetrahydro-1H-pyrido[3,4-b]indol-1-yl)phenoxy)ethyl)propan-1-amine]	–	–	7 µM (≈ 3.37 µg/mL)	–
C[C@@H](CN1[C@H](c2c(F)cnc(OCCNCCCF)c2Cl)c2[nH]c3ccccc3c2C[C@H]1C(F)F)C(=O)O [Example 139, (S)-3-((1R,3S)-1-(3-chloro-5-fluoro-2-(2-((3-fluoropropyl)amino)ethoxy)pyridin-4-yl)-3-(difluoromethyl)-1,3,4,9-tetrahydro-2H-pyrido[3,4-b]indol-2-yl)-2-methylpropanoic acid]	1.5 nM	0.9 nM	–	–
Cc1c(OCCNCCCF)ccc(F)c1[C@@H]1c2[nH]c3ccccc3c2C[C@@H](C)N1CC(F)(F)F [Example 33, 3-fluoro-N-(2-(4-fluoro-2-methyl-3-((1R,3R)-3-methyl-2-(2,2,2-trifluoroethyl)-2,3,4,9-tetrahydro-1H-pyrido[3,4-b]indol-1-yl)phenoxy)ethyl)propan-1-amine]	–	–	8 µM (≈ 3.96 µg/mL)	–
Cc1c(OCCN(C)CCCF)ncc(F)c1[C@@H]1c2[nH]c3ccc(F)cc3c2C[C@@H](C)N1CCC(=O)O [Example 156, 3-((1R,3R)-6-fluoro-1-(5-fluoro-2-(2-((3-fluoropropyl)(methyl)amino)ethoxy)-3-methylpyridin-4-yl)-3-methyl-1,3,4,9-tetrahydro-2H-pyrido[3,4-b]indol-2-yl)propanoic acid]	1.2 nM	1.4 nM	–	–
CC[C@@H]1Cc2c([nH]c3ccccc23)[C@@H](c2c(F)ccc(OCCNCCCF)c2C)N1C[C@H](C)C(=O)O [Example 122, (S)-3-((1R,3R)-3-ethyl-1-(6-fluoro-3-(2-((3-fluoropropyl)amino)ethoxy)-2-methylphenyl)-1,3,4,9-tetrahydro-2H-pyrido[3,4-b]indol-2-yl)-2-methylpropanoic acid]	4.9 nM	0.39 nM	–	–
Cc1c(OCCNCCCF)ccc(F)c1[C@@H]1c2[nH]c3ccccc3c2C[C@@H](C)N1CCC(=O)O [Example 116, 3-((1R,3R)-1-(6-fluoro-3-(2-((3-fluoropropyl)amino)ethoxy)-2-methylphenyl)-3-methyl-1,3,4,9-tetrahydro-2H-pyrido[3,4-b]indol-2-yl)propanoic acid]	–	–	> 1000 µM	–
COc1ccc(OCCNCCCF)cc1[C@@H]1c2[nH]c3ccccc3c2C[C@@H](C)N1CC1(F)CC1 [Example 52, 3-fluoro-N-(2-(3-((1R,3R)-2-((1-fluorocyclopropyl)methyl)-3-methyl-2,3,4,9-tetrahydro-1H-pyrido[3,4-b]indol-1-yl)-4-methoxyphenoxy)ethyl)propan-1-amine]	0.58 nM	0.34 nM	–	–
Cc1ccc(OCCNCCCF)c(F)c1[C@@H]1c2[nH]c3ccccc3c2C[C@@H](C)N1CC(F)(F)F [Example 80, 3-fluoro-N-(2-(2-fluoro-4-methyl-3-((1R,3R)-3-methyl-2-(2,2,2-trifluoroethyl)-2,3,4,9-tetrahydro-1H-pyrido[3,4-b]indol-1-yl)phenoxy)ethyl)propan-1-amine]	–	–	13 µM (≈ 6.44 µg/mL)	–
C[C@@H]1Cc2c([nH]c3ccccc23)[C@@H](c2c(F)cnc(OCCNCCCF)c2Cl)N1C[C@H](C)C(=O)O [Example 133, (S)-3-((1R,3R)-1-(3-chloro-5-fluoro-2-(2-((3-fluoropropyl)amino)ethoxy)pyridin-4-yl)-3-methyl-1,3,4,9-tetrahydro-2H-pyrido[3,4-b]indol-2-yl)-2-methylpropanoic acid]	1.5 nM	1.5 nM	–	–
Cc1cc(OCCNCCCF)cc([C@@H]2c3[nH]c4ccccc4c3C[C@@H](C)N2CC(F)(F)F)c1 [Example 18, 3-fluoro-N-(2-(3-methyl-5-((1R,3R)-3-methyl-2-(2,2,2-trifluoroethyl)-2,3,4,9-tetrahydro-1H-pyrido[3,4-b]indol-1-yl)phenoxy)ethyl)propan-1-amine]	–	–	27 µM (≈ 12.9 µg/mL)	–
C[C@@H]1Cc2c([nH]c3ccc(F)cc23)[C@@H](c2c(F)ccc(OCCNCCCF)c2F)N1C[C@H](C)C(=O)O [Example 59, (S)-3-((1R,3R)-1-(2,6-difluoro-3-(2-((3-fluoropropyl)amino)ethoxy)phenyl)-6-fluoro-3-methyl-1,3,4,9-tetrahydro-2H-pyrido[3,4-b]indol-2-yl)-2-methylpropanoic acid]	2.3 nM	3.1 nM	–	–
Cc1c(OCCNCCCF)ccc(F)c1[C@@H]1c2[nH]c3ccccc3c2C[C@@H](C)N1CC1(C(=O)O)CCC1 [Example 120]	11 nM	2.5 nM	–	–
